Results reported in ChEMBL document CHEMBL5136990, “Histone deacetylase 6 inhibitors with blood-brain barrier penetration as a potential strategy for CNS-Disorders therapy” (Eur J Med Chem, 2022).
pIC50: −log10 of the molar value.

Tests used:
[1] = target: cGMP-specific 3',5'-cyclic phosphodiesterase (Homo sapiens, UniProt O76074); assay: Inhibition of PDE5 (unknown origin)
[2] = target: T1, Histone deacetylase 2 (Homo sapiens, UniProt Q92769); assay: Inhibition of HDAC2 (unknown origin)
[3] = target: T2, Protein deacetylase HDAC6 (Homo sapiens, UniProt Q9UBN7); assay: Inhibition of HDAC6 (unknown origin)
T2 sequence (Q9UBN7 whole entry): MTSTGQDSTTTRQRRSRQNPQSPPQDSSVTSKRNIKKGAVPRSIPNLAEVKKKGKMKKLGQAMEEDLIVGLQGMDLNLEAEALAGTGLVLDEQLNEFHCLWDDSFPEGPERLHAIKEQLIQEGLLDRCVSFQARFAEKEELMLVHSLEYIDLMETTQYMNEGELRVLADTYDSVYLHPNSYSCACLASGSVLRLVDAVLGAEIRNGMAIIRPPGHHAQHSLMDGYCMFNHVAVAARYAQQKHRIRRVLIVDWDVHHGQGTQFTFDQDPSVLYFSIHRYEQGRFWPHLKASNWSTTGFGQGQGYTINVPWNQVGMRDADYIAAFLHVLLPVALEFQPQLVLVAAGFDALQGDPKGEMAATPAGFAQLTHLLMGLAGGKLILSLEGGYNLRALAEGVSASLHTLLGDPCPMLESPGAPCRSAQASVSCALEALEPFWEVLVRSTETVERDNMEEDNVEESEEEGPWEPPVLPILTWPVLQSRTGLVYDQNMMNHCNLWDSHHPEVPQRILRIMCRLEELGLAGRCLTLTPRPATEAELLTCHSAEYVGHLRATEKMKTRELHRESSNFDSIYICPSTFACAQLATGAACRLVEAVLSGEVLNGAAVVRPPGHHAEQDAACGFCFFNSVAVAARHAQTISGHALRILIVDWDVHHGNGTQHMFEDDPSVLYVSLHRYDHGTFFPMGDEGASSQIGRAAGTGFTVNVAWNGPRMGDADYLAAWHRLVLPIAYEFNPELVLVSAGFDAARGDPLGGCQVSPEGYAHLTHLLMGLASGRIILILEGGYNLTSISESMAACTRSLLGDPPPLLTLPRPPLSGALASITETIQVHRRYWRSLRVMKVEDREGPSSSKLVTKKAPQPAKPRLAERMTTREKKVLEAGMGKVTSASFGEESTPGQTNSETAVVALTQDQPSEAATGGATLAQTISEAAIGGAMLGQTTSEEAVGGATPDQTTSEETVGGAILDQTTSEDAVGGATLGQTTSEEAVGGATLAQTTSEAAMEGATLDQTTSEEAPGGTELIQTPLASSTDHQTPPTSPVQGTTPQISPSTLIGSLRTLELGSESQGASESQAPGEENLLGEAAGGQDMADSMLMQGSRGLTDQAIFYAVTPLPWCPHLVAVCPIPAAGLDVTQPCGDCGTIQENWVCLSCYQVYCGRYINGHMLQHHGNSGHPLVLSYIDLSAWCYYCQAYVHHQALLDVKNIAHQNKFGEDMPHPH

[4] = target: High affinity cGMP-specific 3',5'-cyclic phosphodiesterase 9A (Homo sapiens, UniProt O76083); assay: Inhibition of PDE9 (unknown origin)
[5] = target: T3, Histone deacetylase 1 (Homo sapiens, UniProt Q13547); assay: Inhibition of HDAC1 (unknown origin)
[6] = Inhibition of full-length recombinant human HDAC3/NcoR2 using RHKKAc peptide as substrate by fluorescence based assay
[7] = target: T4, Polyamine deacetylase HDAC10 (Homo sapiens, UniProt Q969S8); assay: Inhibition of recombinant human HDAC10 using fluorogenic substrate
T4 sequence (Q969S8 whole entry): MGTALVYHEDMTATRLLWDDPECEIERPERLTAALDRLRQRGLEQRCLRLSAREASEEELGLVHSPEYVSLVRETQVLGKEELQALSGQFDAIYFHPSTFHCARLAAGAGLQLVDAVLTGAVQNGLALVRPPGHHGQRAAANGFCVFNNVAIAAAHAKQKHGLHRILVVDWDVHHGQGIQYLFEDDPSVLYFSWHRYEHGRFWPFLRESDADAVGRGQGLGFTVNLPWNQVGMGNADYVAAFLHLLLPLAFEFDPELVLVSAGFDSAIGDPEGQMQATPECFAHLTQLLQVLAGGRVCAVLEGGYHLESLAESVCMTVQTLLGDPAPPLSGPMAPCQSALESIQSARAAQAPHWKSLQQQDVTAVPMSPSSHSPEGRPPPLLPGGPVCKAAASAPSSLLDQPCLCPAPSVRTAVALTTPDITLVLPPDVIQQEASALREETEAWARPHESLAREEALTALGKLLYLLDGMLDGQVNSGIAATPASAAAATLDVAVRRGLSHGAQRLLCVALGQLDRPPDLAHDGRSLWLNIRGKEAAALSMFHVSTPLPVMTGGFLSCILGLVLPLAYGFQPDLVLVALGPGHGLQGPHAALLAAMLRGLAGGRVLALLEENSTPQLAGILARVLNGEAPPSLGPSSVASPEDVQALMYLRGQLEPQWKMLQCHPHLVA

[8] = target: T3, Histone deacetylase 1; assay: Inhibition of recombinant human HDAC1 using fluorogenic substrate
[9] = target: T1, Histone deacetylase 2; assay: Inhibition of recombinant human HDAC2 using fluorogenic substrate
[10] = target: Histone deacetylase 3 (Homo sapiens, UniProt O15379); assay: Inhibition of recombinant human HDAC3 using fluorogenic substrate
Sequence of Histone deacetylase 3 (O15379 whole entry): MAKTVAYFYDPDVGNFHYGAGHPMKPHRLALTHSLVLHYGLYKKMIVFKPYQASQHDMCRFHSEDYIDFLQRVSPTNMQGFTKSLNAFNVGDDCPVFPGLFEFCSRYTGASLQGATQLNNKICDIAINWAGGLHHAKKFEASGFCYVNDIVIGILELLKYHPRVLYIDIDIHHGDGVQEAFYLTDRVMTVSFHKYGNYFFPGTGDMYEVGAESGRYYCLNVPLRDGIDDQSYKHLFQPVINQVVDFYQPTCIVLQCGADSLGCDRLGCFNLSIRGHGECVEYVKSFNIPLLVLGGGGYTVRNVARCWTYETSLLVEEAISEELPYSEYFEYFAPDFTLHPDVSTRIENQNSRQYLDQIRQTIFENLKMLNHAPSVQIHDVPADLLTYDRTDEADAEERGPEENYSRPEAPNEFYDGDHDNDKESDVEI

T3 sequence (Q13547 whole entry): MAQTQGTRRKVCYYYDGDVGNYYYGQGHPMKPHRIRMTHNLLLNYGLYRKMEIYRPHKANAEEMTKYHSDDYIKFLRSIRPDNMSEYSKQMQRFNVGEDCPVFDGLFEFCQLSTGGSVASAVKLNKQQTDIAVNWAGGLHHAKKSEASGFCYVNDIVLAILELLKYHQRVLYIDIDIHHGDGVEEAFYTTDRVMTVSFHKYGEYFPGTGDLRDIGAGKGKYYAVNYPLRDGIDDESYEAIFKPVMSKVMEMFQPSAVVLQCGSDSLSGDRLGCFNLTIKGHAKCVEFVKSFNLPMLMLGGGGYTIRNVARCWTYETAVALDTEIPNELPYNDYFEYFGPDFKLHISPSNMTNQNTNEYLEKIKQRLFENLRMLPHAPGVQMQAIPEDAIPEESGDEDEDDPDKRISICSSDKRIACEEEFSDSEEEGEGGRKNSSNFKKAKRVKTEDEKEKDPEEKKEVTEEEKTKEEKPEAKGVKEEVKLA
T1 sequence (Q92769 whole entry): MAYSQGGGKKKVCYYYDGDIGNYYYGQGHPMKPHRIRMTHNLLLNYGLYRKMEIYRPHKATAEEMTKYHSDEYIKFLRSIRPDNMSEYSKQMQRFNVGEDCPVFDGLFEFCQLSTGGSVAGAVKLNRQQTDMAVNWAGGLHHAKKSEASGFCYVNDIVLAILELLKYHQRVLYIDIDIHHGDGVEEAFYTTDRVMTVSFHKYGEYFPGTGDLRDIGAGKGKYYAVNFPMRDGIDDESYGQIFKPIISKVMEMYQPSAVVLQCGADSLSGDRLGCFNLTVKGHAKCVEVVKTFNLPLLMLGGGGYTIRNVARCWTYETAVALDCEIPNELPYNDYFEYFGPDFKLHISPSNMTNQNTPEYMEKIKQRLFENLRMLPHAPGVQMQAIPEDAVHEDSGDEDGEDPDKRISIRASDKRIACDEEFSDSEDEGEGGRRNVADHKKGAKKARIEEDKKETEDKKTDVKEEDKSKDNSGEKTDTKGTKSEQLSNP
Sequence of High affinity cGMP-specific 3',5'-cyclic phosphodiesterase 9A (O76083 whole entry): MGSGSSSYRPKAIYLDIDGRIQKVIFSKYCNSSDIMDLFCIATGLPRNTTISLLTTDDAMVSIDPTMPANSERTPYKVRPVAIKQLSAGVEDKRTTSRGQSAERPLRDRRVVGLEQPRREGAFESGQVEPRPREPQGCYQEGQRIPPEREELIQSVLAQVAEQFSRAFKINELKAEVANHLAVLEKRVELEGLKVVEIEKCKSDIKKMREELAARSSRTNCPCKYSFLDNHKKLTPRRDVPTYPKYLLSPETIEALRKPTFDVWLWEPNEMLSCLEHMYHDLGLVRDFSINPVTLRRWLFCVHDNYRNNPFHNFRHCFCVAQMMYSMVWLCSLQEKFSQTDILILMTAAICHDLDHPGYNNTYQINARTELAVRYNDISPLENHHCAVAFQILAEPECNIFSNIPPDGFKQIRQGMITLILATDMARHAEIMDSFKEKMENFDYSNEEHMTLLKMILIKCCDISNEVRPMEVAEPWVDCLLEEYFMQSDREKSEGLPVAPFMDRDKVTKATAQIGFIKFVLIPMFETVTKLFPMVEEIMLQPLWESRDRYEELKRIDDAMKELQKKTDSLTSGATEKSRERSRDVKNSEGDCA

`C[C@@H]1CN(Cc2ccc(C(=O)NO)cc2)C[C@H]1c1nc2c(cnn2C2CCCC2)c(=O)[nH]1` showed a pIC50 [1] of less than 5.00, a pIC50 [2] of 5.45 and a pIC50 [3] of 7.40. The pIC50 [4] was 6.97 and the pIC50 [5] was 6.23.
For `O=C(NO)c1ccc(CN2CCCc3cc(Cl)ccc32)cc1`, the pIC50 [6] was 4.53.
Work on `CN(Cc1ccc(C(=O)NO)cc1[18F])CC12CC3CC(CC(C3)C1)C2` yielded a pIC50 [7] of less than 5.00, a pIC50 [8] of less than 5.00 and a pIC50 [9] of less than 5.00. The pIC50 [10] was less than 5.00.
